Test results reported in patent publication US10221158B2, “Heterocyclic constrained tricyclic sulfonamides as anti-cancer agents” (ICAHN SCHOOL OF MEDICINE AT MOUNT SINAI, priority 2015, dated 2019).
pIC50: −log10 of the molar value.

System: H1650 lung cancer cells
Assay: Cell viability assay (MTT, IC50 determination)
Format: cell-based
Details: Homo sapiens, NCI-H1650, 48 h drug treatment
Method: Cell Viability Assays (IC50 Determination)
Cell viability assays were performed according to Denizot, F. and R. Lang, Journal of Immunological Methods, 1986. 89(22): p. 271-277. H1650 lung cancer cells were plated at 150,000 cells per well in a 12 well plate. Twenty-four hours after plating, cells were treated as described with increasing concentrations of drug and control. Forty-eight hours after drug treatment, cells were treated with 100 μL of 3-(4,5-Dimethylthiazol-2-yl)-2,5-diphenyltetrazolium bromide (MTT) and incubated for 2 hours at 37 C. The MTT solution was subsequently replaced with 300 μL of n-propyl alcohol and re-aliquoted to a 96 well plate. Spectrophotometric analysis of each solution was performed using a 96 well plate reader at 600 nm in triplicate.

## O=S(=O)(N[C@@H]1COC[C@H](N2c3ccccc3CCc3ccccc32)[C@H]1O)c1ccc(OC(F)(F)F)cc1 (racemic) [Example 1, Rac-N-((3R,4R,5S)-5-(10,11-dihydro-5H-dibenzo[b,f]azepin-5-yl)-4-hydroxytetrahydro-2H-pyran-3-yl)-4-(trifluoromethoxy)benzenesulfonamide]
  pIC50: 4.82
